Values quoted from earlier work in US10166212B2, “Oral use of zinc and copper gluconates in the treatment of digital dermatitis” (DANTRACE, priority 2015, dated 2019).

Columns and labels:
[1] = system: digital dermatitis lesions
[2] = administered as pills of zinc oxide; remainder excreted in feces

**Q.** With `O=C(O)c1ccccc1O` [salicylic acid] as the molecule, how does the “healing rate, treatment vs. control group” value ([1]; by day 34, P=0.01) read?
**A.** The value was “fivefold better”.

**Q.** What about the “overall positive effect (healing and improvement), treatment vs. control” value ([1]; by day 34, P=0.05) of the same molecule?
**A.** The value was 1.75 fold.

**Q.** And the “healing rate (change to M0)” value ([1]; by day 34 post-treatment, 10 g salicylic acid powder in bandage vs chlortetracycline spray control)?
**A.** The value was 13.6%.

**Q.** What about the “proportion of lesions getting smaller, treatment vs. control” value ([1]; by days 14 and 34, P<0.08) of the same molecule?
**A.** Its value is 2.5 times.

**Q.** What about the “healing rates between treatment groups” value ([1]; days 3 and 14) of the same molecule?
**A.** Its value is “did not differ significantly”.

**Q.** With `[O]=[Zn]` [zinc oxide] as the molecule, how does the “zinc taken up by the digestive system” value [2] read?
**A.** The value was 20%.
